One assay deals with orexin-1 (Homo sapiens (Human), UniProt O43613). Description: Intracellular calcium measurement (FLIPR), CHO cells expressing human orexin-1 receptor, 3 nM orexin-A. The assay is classed as cell-based. The note with it: read-out: IC50 OX1. Summed up: (§1)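 HBSS buffer with 0.1% BSA, NaHCO3 and 20 mM HEPES carries both compounds and agonist. Dye: fluo-4 AM (3 μM) with 5 mM probenecid. Compound exposure 120 min; peak signal scored against uninhibited orexin-A response.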

For a further assay, the target named is human orexin-2 receptor (Homo sapiens (Human), UniProt O43614). Description: Intracellular calcium measurement (FLIPR), CHO cells expressing human orexin-2 receptor, 3 nM orexin-A. The assay is classed as cell-based. The note with it: read-out: IC50 OX2. Summed up: as §1
[1] abbreviates: CHO cells expressing human orexin-1 receptor, FLIPR, 3 nM orexin-A, geometric mean if determined several times.
The mark [2] stands for this setting: CHO cells expressing human orexin-2 receptor, FLIPR, 3 nM orexin-A, geometric mean if determined several times.

SMILES strings stand for the structures. Read-outs that look alike come from different tables or passages of the source.

Sequence of human orexin-2 receptor (O43614 whole entry): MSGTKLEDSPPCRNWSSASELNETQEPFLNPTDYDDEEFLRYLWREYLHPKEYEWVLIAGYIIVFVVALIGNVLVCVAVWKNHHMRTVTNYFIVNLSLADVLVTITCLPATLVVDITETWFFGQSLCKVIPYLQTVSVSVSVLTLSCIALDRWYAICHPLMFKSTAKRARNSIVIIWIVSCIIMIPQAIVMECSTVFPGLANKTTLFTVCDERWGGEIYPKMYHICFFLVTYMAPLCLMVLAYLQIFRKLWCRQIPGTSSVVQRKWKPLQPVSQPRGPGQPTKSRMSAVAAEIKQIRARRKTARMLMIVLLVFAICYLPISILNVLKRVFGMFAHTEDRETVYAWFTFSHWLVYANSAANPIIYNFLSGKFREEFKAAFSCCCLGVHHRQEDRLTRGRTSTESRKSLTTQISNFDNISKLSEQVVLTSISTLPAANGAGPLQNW
Sequence of orexin-1 (O43613 whole entry): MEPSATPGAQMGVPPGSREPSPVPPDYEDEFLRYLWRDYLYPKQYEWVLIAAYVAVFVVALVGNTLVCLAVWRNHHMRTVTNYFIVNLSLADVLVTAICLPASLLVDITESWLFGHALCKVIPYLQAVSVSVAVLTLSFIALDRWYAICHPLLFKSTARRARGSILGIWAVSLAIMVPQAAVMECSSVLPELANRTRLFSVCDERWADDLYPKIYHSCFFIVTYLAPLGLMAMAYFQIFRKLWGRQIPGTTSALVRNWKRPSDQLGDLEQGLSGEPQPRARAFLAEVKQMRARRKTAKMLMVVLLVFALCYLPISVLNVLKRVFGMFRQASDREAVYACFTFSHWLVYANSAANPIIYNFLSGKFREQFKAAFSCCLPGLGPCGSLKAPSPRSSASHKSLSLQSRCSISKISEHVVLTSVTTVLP

One may read the IC50 as the concentration needed to halve the response being measured. Take `COc1cc(C(=O)N2CCC[C@H]2c2noc(-c3cccc(OC)c3C)n2)c(-n2nccn2)cc1C` [compound 358, {(S)-2-[5-(3-Methoxy-2-methyl-phenyl)-[1,2,4]oxadiazol-3-yl]-pyrrolidin-1-yl}-(5-methoxy-4-methyl-2-[1,2,3]triazol-2-yl-phenyl)-methanone]: the values for the IC50 at orexin-1 (setting [1]) and on human orexin-2 receptor (setting [2]) were 128 nM and 10 nM, respectively.
With `COc1cccc(-c2nc([C@@H]3CCCN3C(=O)c3cc(C)ccc3-n3nccn3)no2)c1C` [compound 359, {(S)-2-[5-(3-Methoxy-2-methyl-phenyl)-[1,2,4]oxadiazol-3-yl]-pyrrolidin-1-yl}-(5-methyl-2-[1,2,3]triazol-2-yl-phenyl)-methanone], the IC50 at orexin-1 (setting [1]) came to 325 nM; at human orexin-2 receptor (setting [2]), 30 nM.
As for `COc1c(Cl)cccc1-c1nc([C@@H]2CCCN2C(=O)c2cc(C)c(C)cc2-n2nccn2)no1` [compound 360], the IC50 came to 7 nM at orexin-1 (setting [1]) and 1 nM on human orexin-2 receptor (setting [2]).
With `COc1cccc(-c2nc([C@@H]3CCCN3C(=O)c3cc(Cl)ccc3-n3nccn3)no2)c1C` [compound 361], the IC50 on orexin-1 (setting [1]) was 127 nM; on human orexin-2 receptor (setting [2]), 61 nM.
As for `COc1cccc(-c2nc([C@@H]3CCCN3C(=O)c3ccc(Cl)cc3-n3nccn3)no2)c1C` [compound 362], the IC50 at orexin-1 (setting [1]) was determined as 171 nM; on human orexin-2 receptor it was 100 nM.
On to `COc1c(F)cccc1-c1nc([C@@H]2CCCN2C(=O)c2cccc(Cl)c2-n2nccn2)no1` [compound 363], for which the IC50 at orexin-1 (setting [1]) is 155 nM; at human orexin-2 receptor (setting [2]) it was 111 nM.
In the case of `COc1cccc(-c2nc([C@@H]3CCCN3C(=O)c3ccc(C)cc3-n3nccn3)no2)c1C` [compound 364, {(S)-2-[5-(3-Methoxy-2-methyl-phenyl)-[1,2,4]oxadiazol-3-yl]-pyrrolidin-1-yl}-(4-methyl-2-[1,2,3]triazol-2-yl-phenyl)-methanone], the IC50 on orexin-1 (setting [1]) was determined as 265 nM; at human orexin-2 receptor (setting [2]), 157 nM.
`Cc1cc(-n2nccn2)c(C(=O)N2CCC[C@H]2c2noc(-c3ccccc3OC(F)(F)F)n2)cc1Cl` [compound 365]: the IC50 at orexin-1 (setting [1]) came to 13 nM; at human orexin-2 receptor (setting [2]), 6 nM.
The corresponding values for `CCOc1c(F)cccc1-c1nc([C@@H]2CCCN2C(=O)c2cc(Cl)c(C)cc2-n2nccn2)no1` [compound 366] are 5 nM and 3 nM.
The corresponding values for `COc1cc(C(=O)N2CCC[C@H]2c2noc(-c3cccc(Cl)c3C)n2)c(-n2nccn2)cc1Cl` [compound 367] are 20 nM and 2 nM.
`COc1cc(C(=O)N2CCC[C@H]2c2noc(-c3cccc(F)c3OC)n2)c(-n2nccn2)cc1Cl` [compound 368]: the IC50 at orexin-1 (setting [1]) is 11 nM; on human orexin-2 receptor (setting [2]) it was 1 nM.
On to `CCOc1c(F)cccc1-c1nc([C@@H]2CCCN2C(=O)c2cc(OC)c(Cl)cc2-n2nccn2)no1` [compound 369], for which the IC50 is 15 nM at orexin-1 (setting [1]) and 2 nM on human orexin-2 receptor (setting [2]).
On to `CCOc1ncccc1-c1nc([C@@H]2CCCN2C(=O)c2cc(OC)c(Cl)cc2-n2nccn2)no1` [compound 370], for which the IC50 is 9 nM at orexin-1 (setting [1]) and 1 nM on human orexin-2 receptor (setting [2]).
As for `Cc1cc(-n2nccn2)c(C(=O)N2CCC[C@H]2c2noc(-c3cccc(Cl)c3C)n2)cc1Cl` [compound 371], the IC50 on orexin-1 came out at 18 nM; at human orexin-2 receptor (setting [2]) it was 7 nM.
In the case of `COc1cc(C(=O)N2CCC[C@H]2c2noc(-c3cccc(F)c3C)n2)c(-n2nccn2)cc1F` [compound 372, (4-Fluoro-5-methoxy-2-[1,2,3]triazol-2-yl-phenyl)-{(S)-2-[5-(3-fluoro-2-methyl-phenyl)-[1,2,4]oxadiazol-3-yl]-pyrrolidin-1-yl}-methanone], the IC50 came to 377 nM on orexin-1 (setting [1]) and 29 nM at human orexin-2 receptor (setting [2]).
As to `COc1cc(C(=O)N2CCC[C@H]2c2noc(-c3cccc(F)c3OC)n2)c(-n2nccn2)cc1F` [compound 373, {(S)-2-[5-(3-Fluoro-2-methoxy-phenyl)-[1,2,4]oxadiazol-3-yl]-pyrrolidin-1-yl}-(4-fluoro-5-methoxy-2-[1,2,3]triazol-2-yl-phenyl)-methanone], the IC50 on orexin-1 (setting [1]) worked out at 212 nM; on human orexin-2 receptor (setting [2]), 5 nM.
Regarding `Cc1ccc(C(=O)N2CCC[C@H]2c2noc(-c3ccccc3OC(F)(F)F)n2)c(-n2nccn2)c1` [compound 374, (4-Methyl-2-[1,2,3]triazol-2-yl-phenyl)-{(S)-2-[5-(2-trifluoromethoxy-phenyl)-[1,2,4]oxadiazol-3-yl]-pyrrolidin-1-yl}-methanone], the IC50 on orexin-1 (setting [1]) came out at 18 nM; at human orexin-2 receptor (setting [2]), 11 nM.
As for `COc1cc(C(=O)N2CCC[C@H]2c2noc(-c3ccccc3OC(F)(F)F)n2)c(-n2nccn2)cc1Cl` [compound 375], the half-maximal inhibitory concentration (IC50) on orexin-1 (setting [1]) was 67 nM; on human orexin-2 receptor (setting [2]) it was 6 nM.
Turning to `O=C(c1ccc(Cl)cc1-n1nccn1)N1CCC[C@H]1c1noc(-c2ccccc2OC(F)(F)F)n1` [compound 376], the IC50 at orexin-1 amounted to 23 nM; at human orexin-2 receptor (setting [2]) it was 11 nM.
For `O=C(c1cc(Cl)ccc1-n1nccn1)N1CCC[C@H]1c1noc(-c2ccccc2OC(F)(F)F)n1` [compound 377], the half-inhibitory concentration (IC50) on orexin-1 (setting [1]) turned out to be 68 nM; on human orexin-2 receptor (setting [2]), 15 nM.
As for `COc1c(F)cccc1-c1nc([C@@H]2CCCN2C(=O)c2ccc(Cl)cc2-n2nccn2)no1` [compound 378], the IC50 at orexin-1 (setting [1]) was determined as 30 nM; at human orexin-2 receptor it was 2 nM.
As to `Cc1c(F)cccc1-c1nc([C@@H]2CCCN2C(=O)c2ccc(Cl)cc2-n2nccn2)no1` [compound 379], the IC50 at orexin-1 (setting [1]) came to 52 nM; on human orexin-2 receptor (setting [2]) it was 5 nM.
`COc1ccc(C)cc1-c1nc([C@@H]2CCCN2C(=O)c2ccc(Cl)cc2-n2nccn2)no1` [compound 381]: the IC50 on orexin-1 (setting [1]) was 136 nM; at human orexin-2 receptor (setting [2]), 28 nM.
`COc1cc(C)cc(-c2nc([C@@H]3CCCN3C(=O)c3cc(C)c(C)cc3-n3nccn3)no2)c1` [compound 382, (4,5-Dimethyl-2-[1,2,3]triazol-2-yl-phenyl)-{(S)-2-[5-(3-methoxy-5-methyl-phenyl)-[1,2,4]oxadiazol-3-yl]-pyrrolidin-1-yl}-methanone]: the values for the concentration for half-maximal inhibition (IC50) at orexin-1 (setting [1]) and on human orexin-2 receptor (setting [2]) were 10 nM and 4 nM, respectively.
`COc1ccc(C)c(-c2nc([C@@H]3CCCN3C(=O)c3cc(C)c(C)cc3-n3nccn3)no2)c1` [compound 383, (4,5-Dimethyl-2-[1,2,3]triazol-2-yl-phenyl)-{(S)-2-[5-(5-methoxy-2-methyl-phenyl)-[1,2,4]oxadiazol-3-yl]-pyrrolidin-1-yl}-methanone]: the values for the IC50 at orexin-1 (setting [1]) and at human orexin-2 receptor (setting [2]) were 30 nM and 4 nM, respectively.
Regarding `COc1ccc(C)cc1-c1nc([C@@H]2CCCN2C(=O)c2cc(C)c(C)cc2-n2nccn2)no1` [compound 384, (4,5-Dimethyl-2-[1,2,3]triazol-2-yl-phenyl)-{(S)-2-[5-(2-methoxy-5-methyl-phenyl)-[1,2,4]oxadiazol-3-yl]-pyrrolidin-1-yl}-methanone], the IC50 at orexin-1 (setting [1]) was determined as 22 nM; on human orexin-2 receptor (setting [2]), 2 nM.
Consider `COc1cc(C)cc(-c2nc([C@@H]3CCCN3C(=O)c3cc(OC)c(C)cc3-n3nccn3)no2)c1` [compound 385, {(S)-2-[5-(3-Methoxy-5-methyl-phenyl)-[1,2,4]oxadiazol-3-yl]-pyrrolidin-1-yl}-(5-methoxy-4-methyl-2-[1,2,3]triazol-2-yl-phenyl)-methanone], for which the 50% inhibitory concentration (IC50) on orexin-1 (setting [1]) came to 26 nM; at human orexin-2 receptor (setting [2]), 8 nM.
As to `COc1ccc(C)c(-c2nc([C@@H]3CCCN3C(=O)c3cc(OC)c(C)cc3-n3nccn3)no2)c1` [compound 386, {(S)-2-[5-(5-Methoxy-2-methyl-phenyl)-[1,2,4]oxadiazol-3-yl]-pyrrolidin-1-yl}-(5-methoxy-4-methyl-2-[1,2,3]triazol-2-yl-phenyl)-methanone], the IC50 at orexin-1 (setting [1]) was found to be 118 nM; at human orexin-2 receptor (setting [2]), 7 nM.
Taken in the same sequence, the figures for `COc1cc(C(=O)N2CCC[C@H]2c2noc(-c3cc(C)ccc3OC)n2)c(-n2nccn2)cc1C` [compound 387, {(S)-2-[5-(2-Methoxy-5-methyl-phenyl)-[1,2,4]oxadiazol-3-yl]-pyrrolidin-1-yl}-(5-methoxy-4-methyl-2-[1,2,3]triazol-2-yl-phenyl)-methanone] were 57 nM and 3 nM.
Take `CCc1ccccc1-c1nc([C@@H]2CCCN2C(=O)c2cc(C)ccc2-n2nccn2)no1` [compound 389, {(S)-2-[5-(2-Ethyl-phenyl)-[1,2,4]oxadiazol-3-yl]-pyrrolidin-1-yl}-(5-methyl-2-[1,2,3]triazol-2-yl-phenyl)-methanone]: the IC50 was 35 nM on orexin-1 (setting [1]) and 15 nM at human orexin-2 receptor (setting [2]).
With `Cc1ccc(-n2nccn2)c(C(=O)N2CCC[C@H]2c2noc(-c3cc(C)ccc3C)n2)c1` [compound 390, {(S)-2-[5-(2,5-Dimethyl-phenyl)-[1,2,4]oxadiazol-3-yl]-pyrrolidin-1-yl}-(5-methyl-2-[1,2,3]triazol-2-yl-phenyl)-methanone], the IC50 at orexin-1 (setting [1]) was 73 nM; at human orexin-2 receptor (setting [2]), 6 nM.
Turning to `Cc1ccc(C(=O)N2CCC[C@H]2c2noc(-c3cccc(C)c3C)n2)c(-n2nccn2)c1` [compound 391, {(S)-2-[5-(2,3-Dimethyl-phenyl)-[1,2,4]oxadiazol-3-yl]-pyrrolidin-1-yl}-(4-methyl-2-[1,2,3]triazol-2-yl-phenyl)-methanone], the half-maximal inhibitory concentration (IC50) at orexin-1 (setting [1]) amounted to 68 nM; on human orexin-2 receptor (setting [2]) it was 14 nM.
For `CCc1ccccc1-c1nc([C@@H]2CCCN2C(=O)c2ccc(C)cc2-n2nccn2)no1` [compound 392, {(S)-2-[5-(2-Ethyl-phenyl)-[1,2,4]oxadiazol-3-yl]-pyrrolidin-1-yl}-(4-methyl-2-[1,2,3]triazol-2-yl-phenyl)-methanone], the IC50 at orexin-1 (setting [1]) and at human orexin-2 receptor (setting [2]) was 17 nM throughout.
As for `Cc1ccc(C)c(-c2nc([C@@H]3CCCN3C(=O)c3ccc(C)cc3-n3nccn3)no2)c1` [compound 393, {(S)-2-[5-(2,5-Dimethyl-phenyl)-[1,2,4]oxadiazol-3-yl]-pyrrolidin-1-yl}-(4-methyl-2-[1,2,3]triazol-2-yl-phenyl)-methanone], the IC50 on orexin-1 (setting [1]) turned out to be 57 nM; at human orexin-2 receptor (setting [2]), 10 nM.

These data come from US9493446B2, “Orexin receptor antagonists which are [ortho bi-(hetero-)aryl]-[2-(meta bi-(hetero-)aryl)-pyrrolidin-1-yl]-methanone derivatives” (Actelion Pharmaceuticals Ltd, priority 2012, dated 2016).
